Measured values as given in patent publication US20060142297A1, “Combination product of inhibitor of the src family of non-recetpor tyrosine kinases and gemcitabine” (priority 2002, published 2006).
Where “and” joins values, the source holds several entries; their conditions need not be identical. Equal values may be shown once.

Legend:
[1] = Body weight of treated nude mice in the L3.6pl pancreatic tumour model; assay type: in vivo, male athymic nude mice
Method: (§1) L3.6pl pancreatic cancer cells were obtained after successive cycles of cell selection from nude mouse tumour tissue that developed after injection of COLO 357 human pancreatic cancer cells. L3.6pl cancer cells (1×10^6 cells) were injected into the pancreas of each animal in several groups of male athymic nude mice (n=8 to 10 per group). […] On the days where both agents were given, the gemcitabine was dosed at least 1 hour before test compound Src-1. A control group of 10 mice received intraperitoneal injections of an equivalent volume of saline according to the same treatment schedule as the combination group. The animals were sacrificed 32 days after tumour cell injection. The pancreatic tumour weight was measured. The incidence of liver metastases was evaluated. All macroscopically enlarged liver nodules were evaluated by histopathology to confirm tumour metastasis.

[2] = test system: L3.6pl pancreatic cancer cells; assay: Orthotopic L3.6pl pancreatic tumour model in nude mice: pancreatic tumour weight and liver metastases; assay type: in vivo, human; details: for Liver Metastases: animals with metastases/animals
Source text: as §1, with “The test method has been described by C J Bruns et al., Cancer Research, 2000, 60, 2926-2935 and involves the injection of pancreatic tumour cells derived from the COLO 357 human pancreatic cancer cell line into pancreas tissue in a group of nude mice and an evaluation of tumour growth and metastasis into liver node tissue. L3.6pl pancreatic” for “L3.6pl pancreatic”

[3] = Src-1 25 mg/kg orally by gavage daily, days 1-5 and 8-12, 32 days after tumour cell injection
[4] = Src-1 50 mg/kg orally by gavage daily, days 1-5 and 8-12, 32 days after tumour cell injection

SMILES | Average Body Weight +/− std dev ([1]; Src-1 25 mg/kg orally by gavage daily, days 1-5 and 8-12) | Average Body Weight +/− std dev ([1]; Src-1 50 mg/kg orally by gavage daily, days 1-5 and 8-12) | Average Tumour Weight +/− std dev [2, 3] | Liver Metastases [2, 3] | Average Tumour Weight +/− std dev [2, 4] | Liver Metastases [2, 4] | Average Body Weight +/− std dev ([1]; gemcitabine 100 mg/kg intraperitoneal twice weekly) | Liver Metastases ([2]; gemcitabine 100 mg/kg intraperitoneal twice weekly (days 2, 5, 9, 12), sacrificed 32 days after tumour cell injection, monohydrochloride) | Average Tumour Weight +/− std dev ([2]; gemcitabine 100 mg/kg intraperitoneal twice weekly, 32 days after tumour cell injection)
COc1ccc(Cl)c(Nc2ncnc3cc(OCC4CCN(C)CC4)c(OC)cc23)c1 [Src-1, 4-(2-chloro-5-methoxyanilino)-6-methoxy-7-(N-methylpiperidin-4-ylmethoxy)quinazoline] | 22.6 ± 1.4 g | 22.3 ± 6.8 g | 816 ± 118 mg | 0/9 | 827 ± 176 mg | 0/9 | – | – | –
Cl.Nc1ccn([C@@H]2O[C@H](CO)[C@@H](O)C2(F)F)c(=O)n1 [gemcitabine, 2′-deoxy-2′,2′-difluorocytidine monohydrochloride] | – | – | – | – | – | – | 22.7 ± 1.5 g | ⅕ and 1/5 | 393 ± 68 mg
